Source: US7112586B2, “Substituted diamine derivatives useful as motilin antagonists” (Ortho-McNeil Pharmaceutical, Inc., priority 2000, dated 2006)

Columns and labels:
[1] = biological target: T1, human cloned receptor (motilin receptor) (Homo sapiens, UniProt O43193); test: 125I-motilin binding to human cloned receptor (HEK 293 cells overexpressed with the motilin receptor); conditions: HEK 293 membranes
T1 construct: expressed in transfected cells; host or cells: HEK 293 cells
Experimental: Human antrum tissue from Analytical Biological Services (Wilmington, Del.) was prepared as a motilin receptor preparation in the following manner. The muscle tissue was homogenized in 10 volumes of 50 mM Tris-Cl, 10 mM MgCl2, 0.1 mg/ml bacitracin, and 0.25 mM Peflabloc, pH 7.5) in a Polytron (29000 rpm, 4×15 seconds). The homogenate was centrifuged at 1000×g for 15 minutes and the supernatant discarded. The pellet was washed twice before being suspended in homogenizing buffer. The crude homogenate was resuspended through a 23 gauge needle before aliquoting and storing at −80° C. The human cloned receptor was prepared from HEK 293 cells overexpressed with the motilin receptor. Cell pellets were thawed and resuspended in 2–3 volumes of homogenizing buffer (10 mM Tris-Cl, 0.2 mM MgCl2, 5 mM KCl, 5 μg/ml aprotinin, leupeptin, and pepstatin A, and 50 μg/ml bacitracin, pH 7.5) and allowed to sit on ice for 15–20 minutes. The suspension was homogenized on ice in a Dounce type homogenizer using 15 strokes. […] The pellet is washed twice with 1 ml cold saline, and after removal of the final supernatant, the pellet at the bottom of the tube is counted in a gamma counter. Non-specific binding is measured by the inclusion of 1 μM unlabelled motilin. IC50 values were determined from Kaleidograph curves. […]

[2] = biological target: T2, motilin receptor preparation (Human antrum tissue) (Homo sapiens, UniProt O43193); test: 125I-motilin binding to human antral stomach membranes; set-up: % Inh (Human antrum): dose or concentration left out as unconfirmed; conditions: for inhibition at 1 µM: read-out: Human Antrum % Inh @1 μM
T2 construct: Human antrum tissue from Analytical Biological Services (Wilmington, Del.) was prepared as a motilin receptor preparation; tissue Analytical Biological Services (Wilmington, Del.); host or cells: human antrum (stomach) muscle tissue, crude membrane homogenate
T2 sequence (O43193 whole entry): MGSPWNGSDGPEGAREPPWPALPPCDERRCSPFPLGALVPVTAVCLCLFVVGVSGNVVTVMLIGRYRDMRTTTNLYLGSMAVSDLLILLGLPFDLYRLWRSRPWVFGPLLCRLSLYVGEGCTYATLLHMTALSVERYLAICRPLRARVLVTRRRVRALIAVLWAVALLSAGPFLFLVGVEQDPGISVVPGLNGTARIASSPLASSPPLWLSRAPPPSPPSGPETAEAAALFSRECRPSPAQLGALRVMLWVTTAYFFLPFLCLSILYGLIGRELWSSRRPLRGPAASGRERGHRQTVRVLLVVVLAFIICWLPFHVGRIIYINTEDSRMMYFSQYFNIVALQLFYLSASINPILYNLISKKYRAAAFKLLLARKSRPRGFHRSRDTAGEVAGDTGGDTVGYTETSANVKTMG
Experimental: Human antrum tissue from Analytical Biological Services (Wilmington, Del.) was prepared as a motilin receptor preparation in the following manner. The muscle tissue was homogenized in 10 volumes of 50 mM Tris-Cl, 10 mM MgCl2, 0.1 mg/ml bacitracin, and 0.25 mM Peflabloc, pH 7.5) in a Polytron (29000 rpm, 4×15 seconds). The homogenate was centrifuged at 1000×g for 15 minutes and the supernatant discarded. The pellet was washed twice before being suspended in homogenizing buffer. The crude homogenate was resuspended through a 23 gauge needle before aliquoting and storing at −80° C. The human cloned receptor was prepared from HEK 293 cells overexpressed with the motilin receptor. Cell pellets were thawed and resuspended in 2–3 volumes of homogenizing buffer (10 mM Tris-Cl, 0.2 mM MgCl2, 5 mM KCl, 5 μg/ml aprotinin, leupeptin, and pepstatin A, and 50 μg/ml bacitracin, pH 7.5) and allowed to sit on ice for 15–20 minutes. The suspension was homogenized on ice in a Dounce type homogenizer using 15 strokes. Sucrose and EDTA were added to a final concentration of 0.25M and 1 mM, respectively, and mixed with a few additional strokes. The material was centrifuged at 400×g for 5 minutes, and the supernatant saved. The pellet was re-resuspended twice with 5 ml homogenizing buffer and rehomogenized as before, and the supernatants combined. The supernatant was centrifuged at 100000×g for 1 hour. The pellet is retained and resuspended with 5 ml of homogenizing buffer through a 19 g and 25 g needle. The suspension is aliquoted and stored at −80° C. until used. The binding assay contains the following components (50 mM HEPES, 5 mM MgCl2, and 1 mM EGTA, pH 7.0, 15 mg/ml BSA, 10 μg/ml aprotinin, leupeptin, and pepstatin A, 0.25 mg/ml bacitracin, and 10 mM benzamidine), ^125I-radiolabelled porcine motilin (50000–70000 cpm; specific activity 2000 Ci/mmol), test compound, and membrane protein. After 60 minutes at 30° C., the samples are placed on ice and centrifuged for 1 minute at 13000×g. The pellet is washed twice with 1 ml cold saline, and after removal of the final supernatant, the pellet at the bottom of the tube is counted in a gamma counter. Non-specific binding is measured by the inclusion of 1 μM unlabelled motilin. IC50 values were determined from Kaleidograph curves.
125I-Motilin Binding to Human Antral Stomach Membranes and the Human Cloned Receptor: […]

[3] = tested on: motilin induced contraction; test: Rabbit tissue bath procedure: inhibition of motilin induced contraction of duodenum segments; set-up: species or system New Zealand White rabbit; conditions: 3 nM porcine motilin induced contraction, read-out: Tissues IC50
Experimental: Rabbit Tissue Bath Procedure
One New Zealand White rabbit (Covance) of either sex was euthanized with an IV injection of Sleepaway. The duodenum was quickly excised, the lumen rinsed with saline to clean, and the tissue placed in cold, aerated (95% O2–5% CO2) Tyrodes buffer (NaCl 136.9 mM, KCl 2.7 mM, CaCl2 1.8 mM, MgCl2 1.04 mM, NaH2PO4 0.42 mM, NaHCO3 11.9 mM, Glucose 5.55 mM, pH 7.4). The duodenum, being kept moist at all times, was cleaned of any excess mesenteric tissue, and then cut into 3 cm segments starting at the proximal end. Sixteen tissue segments were usually prepared from each duodenum. These segments were tied on both ends with 3-0 silk suture (Ethicon). One end of the tissue was attached to an S-hook on a custom made glass support rod (Crown Glass Co., Somerville) and the rod plus tissue were placed in a 15 ml isolated tissue bath (Radnoti). The other end of the glass rod was attached to a Grass Force Displacement Transducer FT03. The tissue was maintained in room temperature Tyrodes buffer pH 7.4 and continually gassed with 95% O2— 5% CO2. The tissues were adjusted to 1.0 g resting tension and maintained at that tension throughout the equilibration period. An Ml2 Tissue Bath Computer was used to record and analyze data.
The tissues were washed twice during a 30 minute equilibration period and readjusted to 1 g resting tension as necessary. After equilibration the tissues were challenged with 3 μM Carbachol (Carbamoylcholine Chloride-Sigma). After maximal contraction was attained, the tissues were washed 3 times with Tyrodes. The tissues were allowed a 20 minute resting/equilibration period, during which time they were washed once and readjusted to 1 g resting tension. The tissues were challenged a second time with 3 μM Carbachol, and this contraction was considered as maximal, or 100% contraction. The tissues were washed 3 times, equilibrated for 10 minutes, washed again and readjusted to 1 g resting tension. Vehicle or test compound in 30% DMSO-50 mM HEPES was added directly to the bath and the tissues were incubated for 20 minutes. Test compounds and vehicle were run in duplicate.
The percent inhibition by test compound of the motilin induced contraction was calculated by first determining the ratio of the vehicle contractions with Motilin compared to the Carbachol contractions. This Tissue Adjustment Factor (TAF) was used to determine the value for the potential uninhibited contraction with Motilin for each tissue. The percent inhibition was then determined by dividing the actual Motilin contraction in treated tissues by the potential uninhibited contraction and subtracting this number from 1. IC50 values were determined by graphing results with Kaleidograph graphing program.

[4] = biological target: T3, Motilin Receptor (Oryctolagus cuniculus, UniProt G1T803); test: Motilin receptor binding, rabbit colon membranes, 125I porcine motilin; set-up: Rabbit Colon % Inh / inhibition / % Inh (Rabbit colon): dose or concentration left out as unconfirmed; conditions: rabbit colon membranes; 125I porcine motilin binding
T3 construct: The muscle tissue was homogenized in 10 volumes of 50 mM Tris-Cl; from tissue; host or cells: rabbit colon smooth muscle, crude membrane homogenate
T3 sequence (G1T803 1-400): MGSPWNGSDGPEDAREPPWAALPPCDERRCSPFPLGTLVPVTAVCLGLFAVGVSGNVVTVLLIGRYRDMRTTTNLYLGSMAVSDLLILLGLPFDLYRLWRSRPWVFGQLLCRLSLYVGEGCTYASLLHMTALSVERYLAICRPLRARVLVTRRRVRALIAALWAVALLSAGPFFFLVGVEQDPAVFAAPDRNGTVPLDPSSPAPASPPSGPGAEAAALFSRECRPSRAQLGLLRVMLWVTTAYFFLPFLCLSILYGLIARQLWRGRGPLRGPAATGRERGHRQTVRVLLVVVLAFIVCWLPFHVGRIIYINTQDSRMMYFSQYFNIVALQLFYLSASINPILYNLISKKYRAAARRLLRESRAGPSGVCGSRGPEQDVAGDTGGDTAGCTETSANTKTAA

T1 sequence (O43193 whole entry): as the sequence (O43193 whole entry) above

SMILES | inhibition at 1 µM ([2]; human antrum membranes) [%] | IC50 ([2]; human antrum membranes) [nM] | Human Antrum % Inh @1 μM ([2]; human antrum membranes) [%] | further results
CC[C@H](C)[C@H](NC(=O)[C@@H]1CCCN1C(=O)[C@@H](NC(=O)[C@@H](N)Cc1ccccc1)C(C)C)C(=O)N[C@@H](Cc1ccccc1)C(=O)N[C@H](C(=O)N[C@@H](Cc1ccc(O)cc1)C(=O)NCC(=O)N[C@@H](CCC(=O)O)C(=O)N[C@@H](CC(C)C)C(=O)N[C@@H](CCC(N)=O)C(=O)N[C@@H](CCCNC(=N)N)C(=O)N[C@@H](CCSC)C(=O)N[C@@H](CCC(N)=O)C(=O)N[C@@H](CCC(=O)O)C(=O)N[C@@H](CCCCN)C(=O)N[C@@H](CCC(=O)O)C(=O)N[C@@H](CCCNC(=N)N)C(=O)N[C@@H](CC(N)=O)C(=O)N[C@@H](CCCCN)C(=O)NCC(=O)N[C@@H](CCC(N)=O)C(=O)O)[C@@H](C)O [Motilin] | – | – | – | IC50 [1]: 3.55 ± 0.05 nM; IC50 ([2]; 125I-Motilin binding to human antral stomach membranes): 1 ± 0.1 nM
O=C(c1ccc(F)cc1)N(C[C@H]1CC[C@@H](N(Cc2ccccc2)C(=O)C(Cl)(Cl)Cl)C1)c1cccc(OCCN2CCCC2)c1 [compound 218] | 98 | – | – | IC50 [3]: 35 nM
O=C(c1ccc(F)cc1)N(CC1CCC(N(Cc2cccc([N+](=O)[O-])c2)C(=O)C(Cl)(Cl)Cl)C1)c1cccc(OCCN2CCCC2)c1 (stereo not drawn) [compound 219] | – | 7.6 | 98 | –
CC(C)(C)C(=O)N(Cc1ccc(F)c(F)c1)[C@@H]1CC[C@H](CN(C(=O)c2ccc(F)cc2)c2cccc(OCCN3CCCC3)c2)C1 [compound 220] | 92 | – | – | –
CC(C)(C)C(=O)N(Cc1ccccc1)C1C=CC(CN(C(=O)c2ccc(F)cc2)c2cccc(OCCN3CCCC3)c2)C1 (stereo not drawn) [compound 221] | – | – | 94 | –
O=C(c1ccc(F)cc1)N(CC1CCCC(N(Cc2ccccc2)Cc2ccccc2)C1)c1cccc(OCCN2CCCC2)c1 (stereo not drawn) [compound 222] | – | – | – | % Inh (Rabbit colon) [4]: 83%; % Inh (Human antrum) ([2]; human antrum membranes, 125I porcine motilin binding): 83%
CC(C)(C)C(=O)N(Cc1cccc(Cl)c1)C1CCCC(CN(C(=O)c2ccc(F)cc2)c2cccc(OCCN3CCCC3)c2)C1 (stereo not drawn) [compound 226] | 100 | 32 | – | IC50 [3]: 9 nM
CC(C)(C)C(=O)N(Cc1ccc(Cl)c(Cl)c1)C1CCCC(CN(C(=O)c2ccc(F)cc2)c2cccc(OCCN3CCCC3)c2)C1 (stereo not drawn) [compound 227] | 100 | 25 | – | –
CC(C)(C)C(=O)N(Cc1ccc(F)c(F)c1)C1CCCC(CN(C(=O)c2ccc(F)cc2)c2cccc(OCCN3CCCC3)c2)C1 (stereo not drawn) [compound 228] | 100 | 25 | – | –
O=C(c1ccc(F)cc1)N(C[C@H]1CC[C@@H](N(Cc2ccccc2)C(=O)C(Cl)(Cl)Cl)C1)c1cccc(OCCN2CCCC2)c1 [compound 231] | – | – | 88 | –
